From article PMC12261219, “Comparative Evaluation of Thiol- and Amine-Conjugating Moieties for Endogenous Albumin Binding after Intravenous Administration” (ACS Pharmacology & Translational Science, 2025)
Where “and” joins values, the source holds several entries; their conditions need not be identical. Identical values can stand only once.

Experiments:
albumin (human serum) = molecular target: T1, albumin (human serum) (Homo sapiens, UniProt P02768); assay: SEC-ICP-MS albumin binding in human serum; assay type: in vitro ADME; settings: for Pt195 in HMWF (albumin-bound) / Pt195 in LMWF: 100 µM, 37 °C; for Bound to albumin: from 1 to 24 h
T1 construct: Human serum was purchased from Sigma-Aldrich; tissue Sigma-Aldrich; host or cells: human serum
Description: Blood of Bab/c mice was collected under anesthesia via heart puncture. […] Human serum was purchased from Sigma-Aldrich. In order to guarantee a stable pH, all sera were buffered with 150 mM phosphate to pH 7.4 by dissolving the necessary amounts of Na2HPO4 and NaH2PO4 directly in the serum. […] The samples were then incubated in the autosampler at 37 °C and analyzed every hour for 4 or 5 h and after 24 h. Between each sample a pure water blank was measured. For measurements with 10 min intervals the same procedure was followed, but the blank measurements were omitted. For SEC-ICP-MS measurements an Agilent 1260 Infinity system coupled to an Agilent 7800 ICP-HRMS equipped with a dynamic reaction cell was used. Oxygen (purity 5.5, Messer Austria GmbH, Gumpoldskirchen, Austria) was used as reaction gas.

albumin = molecular target: T2, albumin (Homo sapiens, UniProt P02768); assay: SEC-ICP-MS with single serum protein solution: albumin; assay type: binding; settings: 200 μM albumin, 100 μM compound, 100 mM PB pH 7.4, 37 °C, 2 h
T2 construct: purchased Sigma-Aldrich A8763
Description: (§1) All investigated proteins were purchased from commercial suppliers: Albumin (Sigma-Aldrich, A8763), IgG (Athens Research, 16–16–090707), α1-antitrypsin (Sigma-Aldrich, A6150) and apotransferrin (Sigma-Aldrich, T1147). […] The compound stocks were diluted into the protein solution to reach a final concentration of 100 μM (27 μL protein and 3 μL compound). The samples were incubated at 37 °C for 2 h and analyzed as described for the SEC-ICP-MS studies (Tables S6 and S7).

IgG = assay: SEC-ICP-MS with single serum protein solution: IgG; assay type: binding, human; settings: 200 μM IgG, 100 μM compound, 100 mM PB pH 7.4, 37 °C, 2 h
Description: as §1

[1] = Serum pharmacokinetics (platinum, ICP-MS) in CT26-bearing Balb/c mice; settings: for Cmax / Percentage of AUCPt_0-∞ extrapolated from tlast to infinity / Half-life / CL / Vz: serum platinum; for Cmax: measured at tmax=0.08 h; for Cmax / CL: single i.v. dose 4.42 mg/kg Pt; for Percentage of AUCPt_0-∞ extrapolated from tlast to infinity: tlast=24 h; for Half-life: terminal half-life; for CL: total body clearance; for Vz: volume of distribution based on the terminal phase
Description: CT26 cells (5 × 10^5 in 50 μL serum-free medium) were injected subcutaneously (s.c.) into the right flank of male Balb/c mice. […] The blood, tumor and organ collection followed the study design in Figure A. Briefly, to assess serum platinum levels, blood was collected after 5 min, 30 min, 5 h and 24 h (2 mice per time point) via the facial vein. The serum was separated by centrifugation (two times 10 min at 900 g) after 10 min clotting at room temperature. […] All collected samples were stored at −20 °C and further processed for platinum measurements via ICP-MS as follows: HNO3 (67–69%, suprapur for trace metal analysis, NORMATOM; Distributor: VWR international, Austria) and conc. H2O2 suprapur (Merck, 30%) were used without further purification. Digestion of tissue (approximately 15–30 mg gravimetrically weighted) was performed with 2 mL of approximately 20% HNO3 and 100 μL H2O2 using an open vessel graphite digestion system (coated graphite heating plate, coated sample holder-top for 25 mL vials, PFA vials and PFA lids; Labter, ODLAB; Distributor: AHF Analysentechnik AG; Germany). Digested samples were diluted in Milli-Q water (18.2 MΩ cm, Milli-Q Advantage, Darmstadt, Germany). For the ICP-MS analysis, platinum and rhenium standards were derived from CPI International (Amsterdam, The Netherlands). The total platinum content was determined with a quadrupole-based Agilent 7800 ICP-MS instrument (Agilent Technologies, Tokyo, Japan) equipped with the Agilent SPS 4 autosampler (Agilent Technologies, Tokyo, Japan) and a MicroMist nebulizer at a sample uptake rate of approximately 0.2 mL/min. An RF power of 1550 W was used as well as nickel cones. Argon was used as plasma gas (15 L/min) and as carrier gas (∼1.1 L/min). The dwell time was set to 0.1 s and the measurements were performed in 6 replicates with 100 sweeps. Rhenium served as internal standard for platinum. The Agilent MassHunter software package (Workstation Software, version C.01.04) was used for data processing.
As platinum was measured in serum, equimolar administered doses were adjusted to correspond to platinum (0.0227 mmol, 4.42 mg platinum). The area under the “concentration”–time curve (AUC) was determined from time 0 to infinity (AUCPt_0‑∞) and from time 0 to 24 h (AUCPt_0–24, based on the last observed sample at 24 h; linear-log trapezoidal calculation method). The terminal slope (λ z ) was determined based on the last two (out of four) measurements (times 5 h and 24 h).

[2] = Hydrolytic stability in buffer (HPLC); assay type: physicochemical; settings: for Intact compound after 25 h: 0.5 mM
Description: The samples were incubated at 20 °C and measured over 25 h. Reversed phase high-performance liquid chromatography (RP-HPLC) runs were performed using a Waters Acquity UPLC BEH C18 column (130 Å, 1.7 μm, 3 mm × 50 mm) on a Dionex Thermo Scientific UltiMate 3000 HPLC system, equipped with a HPG-3400RS binary pump and a DAD-3000 UV–vis detector. Chromatograms were evaluated at a wavelength of 220 nm. Milli-Q water (mobile phase A) and acetonitrile (mobile phase B), both containing 0.1% TFA, were used as eluents. The flow rate was consistent at 0.6 mL/min for all measurements using the following gradient: 0–0.5 min A 95:5 B, 0.5–5.5 min linear gradient to A 5:95 B, 5.5–6.5 min A 5:95 B, 6.5–9.2 min A 95:5 B. The same conditions were applied for stability measurements in 100 mM PB at pH 5.5 and 6.5 as well as in 20 mM HEPES and MOPS at pH 7.4. RP-HPLC-MS analyses of the same samples after the stability measurements were conducted on a Waters Acquity UPLC BEH C18 column (130 Å, 1.7 μm, 3 mm × 50 mm) on an Agilent 1260 Infinity II system equipped with a Flexible pump, a 1260 VWD UV–vis detector and the LC–MSD system. Chromatograms were evaluated at a wavelength of 220 nm. Milli-Q water (mobile phase A) and acetonitrile (mobile phase B), both containing 0.1% formic acid, were used as eluents. The flow rate was consistent at 0.6 mL/min for all measurements using the following gradient: 0–0.5 min A 95:5 B, 0.5–6.0 min linear gradient to A 5:95 B, 6.0–7.0 min A 5:95 B, 7.0–7.1 min linear gradient to A 95:5 B, 7.1–8.0 min A 95:5 B.

[3] = Reduction with ascorbic acid, release of oxaliplatin (HPLC); assay type: physicochemical; settings: 0.5 mM, 150 mM PB, pH 7.4, 20 °C, 30 eq. ascorbic acid
Description: The samples were incubated at 20 °C and measured over 25 h. […] RP-HPLC runs were performed using a Waters Acquity UPLC HSS T3 column (100 Å, 1.8 μm, 3.0 mm × 50 mm) on a Dionex Thermo Scientific UltiMate 3000 HPLC system, equipped with a HPG-3400RS binary pump and a DAD-3000RS UV–vis detector. Chromatograms were evaluated at a wavelength of 230 nm. Milli-Q water (mobile phase A) and acetonitrile (mobile phase B), both containing 0.1% TFA, were used as eluents. The flow rate was consistent at 0.6 mL/min for all measurements using the following gradient: 0–0.5 min A 99:1 B, 0.5–5.5 min linear gradient to A 1:99 B, 5.5–6.5 min A 1:99 B, 6.5–9.2 min A 99:1 B.

α1-antitrypsin = molecular target: T3, α1-antitrypsin (Homo sapiens, UniProt P01009); assay: SEC-ICP-MS with single serum protein solution: α1-antitrypsin; assay type: binding; settings: 200 μM α1-antitrypsin, 100 μM compound, 100 mM PB pH 7.4, 37 °C, 2 h
T3 construct: purchased Sigma-Aldrich A6150
Description: as §1

apotransferrin = molecular target: T4, apotransferrin (Homo sapiens, UniProt P02787); assay: SEC-ICP-MS with single serum protein solution: apotransferrin; assay type: binding; settings: 200 μM apotransferrin, 100 μM compound, 100 mM PB pH 7.4, 37 °C, 2 h
T4 construct: purchased Sigma-Aldrich T1147
Description: as §1

T3 sequence (P01009 25-418): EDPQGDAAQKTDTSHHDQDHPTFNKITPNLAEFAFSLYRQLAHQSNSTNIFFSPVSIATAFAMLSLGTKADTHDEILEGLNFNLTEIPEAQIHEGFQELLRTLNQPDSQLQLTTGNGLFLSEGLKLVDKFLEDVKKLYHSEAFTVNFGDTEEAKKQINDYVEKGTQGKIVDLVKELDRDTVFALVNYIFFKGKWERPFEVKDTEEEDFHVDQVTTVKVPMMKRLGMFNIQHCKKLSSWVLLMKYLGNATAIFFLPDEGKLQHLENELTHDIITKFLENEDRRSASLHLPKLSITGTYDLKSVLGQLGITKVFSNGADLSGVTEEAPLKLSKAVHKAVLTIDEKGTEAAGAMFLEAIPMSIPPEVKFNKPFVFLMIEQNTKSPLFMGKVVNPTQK
T4 sequence (P02787 20-698): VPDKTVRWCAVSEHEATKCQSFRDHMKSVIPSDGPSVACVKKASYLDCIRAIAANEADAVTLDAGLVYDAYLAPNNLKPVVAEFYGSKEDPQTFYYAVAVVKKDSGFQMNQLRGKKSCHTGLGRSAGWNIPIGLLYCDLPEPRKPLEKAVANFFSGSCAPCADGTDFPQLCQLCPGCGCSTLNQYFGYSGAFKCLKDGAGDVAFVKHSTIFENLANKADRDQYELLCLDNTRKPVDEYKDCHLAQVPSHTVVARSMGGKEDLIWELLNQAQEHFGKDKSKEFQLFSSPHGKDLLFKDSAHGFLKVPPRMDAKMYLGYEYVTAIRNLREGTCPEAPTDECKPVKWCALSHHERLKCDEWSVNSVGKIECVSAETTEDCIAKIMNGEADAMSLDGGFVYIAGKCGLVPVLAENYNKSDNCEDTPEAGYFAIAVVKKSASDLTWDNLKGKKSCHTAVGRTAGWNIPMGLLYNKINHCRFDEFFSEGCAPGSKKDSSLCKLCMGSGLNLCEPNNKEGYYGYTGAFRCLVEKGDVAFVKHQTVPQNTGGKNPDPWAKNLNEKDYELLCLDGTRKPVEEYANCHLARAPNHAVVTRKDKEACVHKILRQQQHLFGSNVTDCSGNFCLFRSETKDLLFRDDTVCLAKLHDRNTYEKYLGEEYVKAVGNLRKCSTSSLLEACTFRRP
T1 sequence (P02768 25-609): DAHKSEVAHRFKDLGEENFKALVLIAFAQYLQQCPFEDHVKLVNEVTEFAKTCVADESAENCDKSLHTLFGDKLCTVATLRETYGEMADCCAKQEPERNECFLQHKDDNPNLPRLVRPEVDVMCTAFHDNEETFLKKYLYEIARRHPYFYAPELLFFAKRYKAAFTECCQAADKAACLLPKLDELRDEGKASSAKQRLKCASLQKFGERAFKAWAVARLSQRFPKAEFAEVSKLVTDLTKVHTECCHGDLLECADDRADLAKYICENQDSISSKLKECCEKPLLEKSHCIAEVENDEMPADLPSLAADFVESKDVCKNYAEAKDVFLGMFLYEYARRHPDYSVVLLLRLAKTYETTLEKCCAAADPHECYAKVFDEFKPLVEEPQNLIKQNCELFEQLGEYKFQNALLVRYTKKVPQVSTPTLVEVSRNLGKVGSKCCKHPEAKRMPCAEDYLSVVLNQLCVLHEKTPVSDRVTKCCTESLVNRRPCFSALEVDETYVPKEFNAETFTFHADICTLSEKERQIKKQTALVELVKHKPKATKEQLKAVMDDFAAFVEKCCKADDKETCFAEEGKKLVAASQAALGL
T2 sequence (P02768 25-609): as above

Row | SMILES | Pt195 in HMWF (albumin-bound) (albumin (human serum); pH 7.4, 0 h) | Pt195 in LMWF (albumin (human serum); pH 7.4, 0 h) [%] | Pt195 in HMWF (albumin-bound) (albumin (human serum); pH 7.4, 1 h) | Pt195 in LMWF (albumin (human serum); pH 7.4, 1 h) [%] | Pt195 in HMWF (albumin-bound) (albumin (human serum); pH 7.4, 2 h) [%] | Pt195 in LMWF (albumin (human serum); pH 7.4, 2 h) [%] | Pt195 in HMWF (albumin-bound) (albumin (human serum); pH 7.4, 3 h) [%] | Pt195 in LMWF (albumin (human serum); pH 7.4, 3 h) [%] | Pt195 in HMWF (albumin-bound) (albumin (human serum); pH 7.4, 4 h) [%] | Pt195 in LMWF (albumin (human serum); pH 7.4, 4 h) [%] | Pt195 in HMWF (albumin-bound) (albumin (human serum); pH 7.4, 5 h) [%] | Pt195 in LMWF (albumin (human serum); pH 7.4, 5 h) [%] | Pt195 in HMWF (albumin-bound) (albumin (human serum); pH 7.4, 24 h) [%] | Pt195 in LMWF (albumin (human serum); pH 7.4, 24 h) [%] | Platinum in the HMWF (protein-bound) (albumin) [%] | Platinum in the HMWF (protein-bound) (IgG) | Cmax [1] [mg/kg] | Percentage of AUCPt_0-∞ extrapolated from tlast to infinity [1] [%] | Half-life ([1]; i.v.) [h] | CL [1] [kg/h/kg] | also measured
1 | CC(=O)[O][Pt-2]12([O]C(=O)NCCOCCOCCOCCOC(=O)C3=CCCCC3S(=O)(=O)Nc3ccc(F)cc3F)([NH2+]C3CCCCC3[NH2+]1)[O]C(=O)C(=O)[O]2 (mixture of isomers) [DFSA-Ox-OAc, (OC-6–34)-Acetato[(1R,2R)-1,2-cyclohexane-1,2-diamino][(1-(6-(N-(2,4-difluorophenyl)-sulfamoyl)-cyclohex-1-en-1-yl)-1-oxo-2,5,8,11-tetraoxatridecan-13-yl)-carbamato]-oxalato platinum(IV)] | 0% | 100 | 34% | 66 | 50 | 50 | 59 | 41 | 63 | 37 | 66 | 34 | 59 | 41 | 26 | < 5% | 4.61 | 45.6 | 21.9 | 0.0685 | Maximum albumin binding (albumin (human serum); reached after several hours): 66%; Vz ([1]; i.v.): 2.17 kg/kg; Intact compound after 25 h ([2]; 20 mM HEPES, pH 7.4, 20 °C): stable; Intact compound after 25 h ([2]; 20 mM MOPS, pH 7.4, 20 °C): stable; Intact compound after 25 h ([2]; 100 mM PB, pH 5.5, 20 °C): stable; Intact compound after 25 h ([2]; 100 mM PB, pH 6.5, 20 °C): stable; Intact compound after 25 h ([2]; 100 mM PB, pH 7.4, 20 °C): 97%; Hydrolytic stability in all tested conditions ([2]; PB pH 5.5, 6.5, 7.4, HEPES and MOPS pH 7.4, 20 °C, 25 h): stable; Oxaliplatin detected (released) after 25 h [3]: 10%; Platinum in the HMWF (protein-bound) (α1-antitrypsin): 20%; Platinum in the HMWF (protein-bound) (apotransferrin): < 5%
2 | CC(=O)[O][Pt-2]12([O]C(=O)NCCOCCOCCOCCOCCN3C(=O)C=CC3=O)([NH2+][C@@H]3CCCC[C@H]3[NH2+]1)[O]C(=O)C(=O)[O]2 [Mal-Ox-OAc, (OC-6–34)-Acetato[(1R,2R)-1,2-cyclohexane-1,2-diamino][ (14-(2,5-dioxo-2,5-dihydro-1H-pyrrol-1-yl)-3,6,9,12-tetraoxatetradecyl)-carbamato]-oxalato platinum(IV)] | 29% | 71 | 94% and ~90% | 6 | 94 | 6 | 94 | 6 | 94 | 6 | 94 | 6 | 93 | 7 | 75 | less than 20% | 35.6 | 27.7 | 12.2 | 0.00892 | Bound to albumin (albumin (human serum)): ~90%; Vz ([1]; i.v.): 0.157 kg/kg; Intact compound after 25 h ([2]; 20 mM HEPES, pH 7.4, 20 °C): 56% and ~60%; Intact compound after 25 h ([2]; 20 mM MOPS, pH 7.4, 20 °C): 58% and ~60%; Intact compound after 25 h ([2]; 100 mM PB, pH 5.5, 20 °C): 96%; Intact compound after 25 h ([2]; 100 mM PB, pH 6.5, 20 °C): 80%; Intact compound after 25 h ([2]; 100 mM PB, pH 7.4, 20 °C): 23%; Oxaliplatin detected (released) after 25 h [3]: 18%; Platinum in the HMWF (protein-bound) (α1-antitrypsin): ~30%; Platinum in the HMWF (protein-bound) (apotransferrin): less than 10%
3 | CC(=O)[O][Pt-2]12([O]C(=O)NCCOCCOCCOCCOc3ccc(-c4nnc(S(C)(=O)=O)o4)cc3)([NH2+][C@@H]3CCCC[C@H]3[NH2+]1)[O]C(=O)C(=O)[O]2 [PODS-Ox-OAc, (OC-6–34)-Acetato[(1R,2R)-1,2-cyclohexane-1,2-diamino][(2-(2-(2-(2-(4-(5-(methylsulfonyl)-1,3,4-oxadiazol-2-yl)-phenoxy)-ethoxy)-ethoxy)-ethoxy)-ethyl)-carbamato]-oxalato platinum(IV)] | 2% and < 5% | 98 | 87% and ~90% | 13 | 91 | 9 | 92 | 8 | 92 | 8 | 92 | 8 | 92 | 8 | 69 | less than 20% | 52.5 | 25.5 | 13.6 | 0.00693 | Bound to albumin (albumin (human serum)): ~90%; Serum platinum level higher than after Mal-Ox-OAc treatment ([1]; at 5 and 30 min, i.v.): about 50%; Vz ([1]; i.v.): 0.136 kg/kg; Intact compound after 25 h ([2]; 20 mM HEPES, pH 7.4, 20 °C): 54%; Intact compound after 25 h ([2]; 20 mM MOPS, pH 7.4, 20 °C): 76%; Intact compound after 25 h ([2]; 100 mM PB, pH 5.5, 20 °C): 99%; Intact compound after 25 h ([2]; 100 mM PB, pH 6.5, 20 °C): 94%; Intact compound after 25 h ([2]; 100 mM PB, pH 7.4, 20 °C): 70%; Oxaliplatin detected (released) after 25 h [3]: 9%; Platinum in the HMWF (protein-bound) (α1-antitrypsin): ~30%; Platinum in the HMWF (protein-bound) (apotransferrin): less than 10%
